These results are taken from patent US20220144812A1, “QUINOLINE DERIVATIVES AND THEIR USE FOR THE TREATMENT OF CANCER” (Epizyme, Inc., priority 2019, published 2022).

For one experiment, the target named is T1, EP300 (P300(1048-1664)) (Homo sapiens, UniProt Q09472).
T1 construct: P300(1048-1664)
T1 sequence (Q09472 1048-1664): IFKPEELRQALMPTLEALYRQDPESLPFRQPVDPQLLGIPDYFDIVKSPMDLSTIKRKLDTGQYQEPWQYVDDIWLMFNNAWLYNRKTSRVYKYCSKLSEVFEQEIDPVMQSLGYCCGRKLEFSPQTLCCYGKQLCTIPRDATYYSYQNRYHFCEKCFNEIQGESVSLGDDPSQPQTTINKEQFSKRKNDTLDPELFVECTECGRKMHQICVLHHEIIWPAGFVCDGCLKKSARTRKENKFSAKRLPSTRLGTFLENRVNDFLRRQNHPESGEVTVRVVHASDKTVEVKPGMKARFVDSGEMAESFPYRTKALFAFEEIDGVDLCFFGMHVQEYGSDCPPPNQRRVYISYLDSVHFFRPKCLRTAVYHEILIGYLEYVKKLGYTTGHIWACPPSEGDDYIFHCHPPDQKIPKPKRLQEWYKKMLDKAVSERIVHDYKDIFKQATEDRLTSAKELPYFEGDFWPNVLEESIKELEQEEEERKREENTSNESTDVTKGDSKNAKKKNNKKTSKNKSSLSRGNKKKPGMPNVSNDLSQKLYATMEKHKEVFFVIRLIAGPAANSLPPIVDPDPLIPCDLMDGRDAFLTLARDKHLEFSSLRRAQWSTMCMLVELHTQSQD
Put plainly: Biochemical assay for EP300, SAMDI. The settings on record: P300(1048-1664), Peptide #233, Ac-CoA, SAMDI mass spectrometry; read-out: EP300 Biochemistry IC50. The source says:
The following example describes materials and methods relating to a biochemical assay for EP300. IC50 values (micromolar (μM)) are summarized in Table 1, Table 2, and Table 3 under the column labeled: “EP300 Biochemistry IC50 (micromolar).”

In another experiment the target is T2, CREBBP (1084-1701) (Homo sapiens, UniProt Q92793).
T2 construct: measured in the following biochemical assay using CREBBP (1084-1701); purchased
Nature of the experiment: Biochemical assay for CREBBP (1084-1701), SAMDI. The settings on record: Peptide #233, Acetyl-CoA, SAMDI mass spectrometry, read-out: CREBBP Biochemistry IC50. Put shortly:
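Acetyltransferase activity measured by SAMDI mass spectrometry after capture on biochip. Enzyme sat with compound 30 min at RT before acetyl-CoA and biotinylated H3 11-25 (K14R, K23R) peptide were added for 30 min at RT. Formic acid quench, bicarbonate neutralisation; IC50 values reported.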

In a further experiment the test system is 647V cells. Nature of the experiment: High throughput proliferation (HTP) assay. The format is cell-based. The settings on record: Homo sapiens, 647-V, 168 h, 647V cells, day 7, CellTiter-Glo; read-out: CREBBP HTP IC50. Put shortly:
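Proliferation IC50 (micromolar) derived from a 7-day CellTiter-Glo viable-cell readout in 647V cells exposed, in triplicate, to rising compound concentrations; cells grown in DMEM plus 15% heat-inactivated FBS at 37° C under 5% CO2.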
A general note: ATP-based viability assays read luminescence as a measure of living cells.

Experiment [1] deals with H3K18Ac in HB-CLS-2 cells. Put plainly: H3K18AC in-cell western (ICW) assay. The format is cell-based. The following applies: 2 h, H3K18Ac in HB-CLS-2 cells, 2 hrs compound incubation; read-out: CREBBP ICW IC50. In a few lines: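 In-cell western: after methanol fixation, blocking, overnight 4° C anti-H3K18Ac staining, then 800CW secondary plus DRAQ5 for DNA content, integrated intensities were scanned at 800 and 700 nm. Before this, compound exposure lasted 2 hr at 37° C in HB-CLS-2 cells plated 16–24 hours earlier. Values expressed as IC50 (μM).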

T2 sequence (Q92793 1084-1701): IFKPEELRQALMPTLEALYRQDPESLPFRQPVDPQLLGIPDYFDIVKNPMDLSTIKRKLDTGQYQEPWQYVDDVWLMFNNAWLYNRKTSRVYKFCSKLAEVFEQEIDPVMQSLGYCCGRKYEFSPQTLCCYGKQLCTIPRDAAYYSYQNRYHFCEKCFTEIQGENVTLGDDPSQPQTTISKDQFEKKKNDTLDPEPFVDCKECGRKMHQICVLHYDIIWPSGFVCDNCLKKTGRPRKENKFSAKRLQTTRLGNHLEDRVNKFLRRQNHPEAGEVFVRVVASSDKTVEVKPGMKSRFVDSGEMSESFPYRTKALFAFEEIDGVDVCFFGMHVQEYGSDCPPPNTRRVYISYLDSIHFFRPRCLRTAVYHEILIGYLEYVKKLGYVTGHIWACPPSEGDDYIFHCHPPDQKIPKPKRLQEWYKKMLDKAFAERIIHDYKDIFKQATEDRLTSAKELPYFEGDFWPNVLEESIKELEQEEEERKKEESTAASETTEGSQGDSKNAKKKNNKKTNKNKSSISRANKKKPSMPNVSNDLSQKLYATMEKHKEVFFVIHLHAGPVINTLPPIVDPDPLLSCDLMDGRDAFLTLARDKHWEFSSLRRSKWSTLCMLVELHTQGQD

`CCn1ncc(CN(C)C(=O)c2nc(-c3cc(C(=O)NC)n(C)n3)nc3ccc(C4CC4)cc23)c1C` [Compound 638]: the half-inhibitory concentration (IC50) – broadly, the concentration needed to halve the response being measured – at EP300 (P300(1048-1664)) came out at 0.0662 µM; on CREBBP (1084-1701), 0.116 µM; with 647V cells it was 0.357 µM; in experiment [1], 0.124 µM.

For `CCn1ncc(C(N(C)C(=O)c2cc(-c3ccc(NCCN(C)C)c(C)n3)nc3ccc(Cl)cc23)C(F)(F)F)c1C` (centres unmarked) [Compound 639], the IC50 on EP300 (P300(1048-1664)) stood at 50 µM; on CREBBP (1084-1701), 50 µM; in the experiment on 647V cells it was 2.17 µM; in experiment [1], 20 µM.

Take `Cc1nc(-c2cc(C(=O)N(C)Cc3cnc(C4CC4)n3C)c3cc(Cl)ccc3n2)ccc1NC1CCN(C)C1` (centres unmarked) [Compound 640]: the IC50 was determined as 0.009 µM at EP300 (P300(1048-1664)), 0.0246 µM on CREBBP (1084-1701), 0.0487 µM in the experiment with 647V cells and 0.135 µM in experiment [1].

For `COCc1ccc2nc(-c3ccc(NCCN(C)C)c(C)n3)cc(C(=O)N(C)Cc3cnc(C4CC4)n3C)c2c1` [Compound 641], the half-maximal inhibitory concentration (IC50) was determined as 0.0221 µM at EP300 (P300(1048-1664)), 0.0733 µM at CREBBP (1084-1701), 0.111 µM in the experiment with 647V cells and 0.2 µM in experiment [1].

Turning to `CCc1ncc(CN(C)C(=O)c2cc(-c3ccc(NC4CCN(C)C4)c(C)n3)nc3ccc(Cl)cc23)n1C` (centres unmarked) [Compound 642], the concentration for half-maximal inhibition (IC50) on EP300 (P300(1048-1664)) worked out at 0.0091 µM; on CREBBP (1084-1701), 0.0281 µM; with 647V cells, 0.0334 µM; in experiment [1], 0.0866 µM.
